Assay results from ChEMBL document CHEMBL2406912, “In vivo antimalarial activity of novel 2-hydroxy-3-anilino-1,4-naphthoquinones obtained by epoxide ring-opening reaction” (2013).

Experiments:
Type in all cases: functional
Plasmodium berghei [1] = experiment: Antimalarial activity against Plasmodium berghei NK65 infected in Swiss albino mouse assessed as increase of survival days of host at 100 mg/kg, po qd for 4 days (reference value: 20 +/- 2.7 days)
Plasmodium berghei [2] = experiment: Antimalarial activity against Plasmodium berghei NK65 infected in Swiss albino mouse assessed as inhibition of parasitemia at 100 mg/kg, po qd for 4 days measured on day 5 of after infection relative to control
Plasmodium berghei [3] = experiment: Antimalarial activity against Plasmodium berghei NK65 infected in Swiss albino mouse assessed as inhibition of parasitemia at 100 mg/kg, po qd for 4 days measured on day 7 of after infection relative to control
Plasmodium berghei [4] = experiment: Antimalarial activity against Plasmodium berghei NK65 infected in Swiss albino mouse assessed as increase of survival days of host at 10 mg/kg, po qd for 4 days (reference value: 20 +/- 2.7 days)
Plasmodium berghei [5] = experiment: Antimalarial activity against Plasmodium berghei NK65 infected in Swiss albino mouse assessed as inhibition of parasitemia at 10 mg/kg, po qd for 4 days measured on day 5 to 7 of after infection relative to control

| Structure (SMILES) | MSD (Plasmodium berghei [1]) | inhibition in vivo at 100 mg/kg (Plasmodium berghei [2]) | inhibition in vivo at 100 mg/kg (Plasmodium berghei [3]) | MSD (Plasmodium berghei [4]) | inhibition in vivo at 10 mg/kg (Plasmodium berghei [5]) |
| --- | --- | --- | --- | --- | --- |
| O=C1C(O)=C(Nc2ccccc2)C(=O)c2ccccc21 | 32.5 days | 53.3% | 18.5% | – | – |
| COc1ccc(NC2=C(O)C(=O)c3ccccc3C2=O)cc1 | 26 days | 66.6% | 25.9% | – | – |
| CCN(CC)CCCC(C)Nc1ccnc2cc(Cl)ccc12 (stereo unspecified) [CHLOROQUINE] | – | – | – | >60 days | 98% |
| Cc1cccc(C)c1NC1=C(O)C(=O)c2ccccc2C1=O | 26.7 days | 0% | 0% | – | – |
